Reference: patent US9598463B2, “Mucin hypersecretion inhibitors and methods of use” (BIOMARCK PHARMACEUTICALS, LTD., priority 2005, dated 2017)
Marks after values point to notes of the source that are not given here. Where a SMILES comes first, the peptide text is derived from it. The star is where a group is joined. Myristoyl = CCCCCCCCCCCCCC(=O)*

System: methacholine-induced mucin hypersecretion
Test: Methacholine-induced mucin hypersecretion in ovalbumin-sensitized mouse model of asthma, BAL mucin ELISA (Balb/C mice)
Assay type: in vivo
Conditions: Table II, peptides at 100 μM, 50 μL intratracheal 15 min before methacholine
Excerpt: Experiments were designed to test whether or not the MANS peptide and other test peptides related thereto inhibit hypersecretion of mucin in murine airway in vivo. The ovalbumin-sensitized mouse model of allergic inflammation and asthma used in these studies was as described by Singer et al. (2004), supra. As a negative control, a control peptide containing an N-terminal myristoyl group and the same amino acids as MANS peptide but arranged in random order (i.e., the random N-terminal sequence, RNS, myristoyl-peptide 232) was tested alongside the proposed active peptides. BP2 mice, aged 6-8 wks, were immunized subcutaneously twice at weekly intervals with 1 μg of ovalbumin. After 14 days of sensitization, the animals were exposed to aerosolized ovalbumin, which causes a pronounced goblet cell hyperplasia after 72 hours. At the 72 hr time point, the secretagogue, methacholine ([…]) was delivered using a Buxco system nebulizer providing a fine aerosol for 90 seconds. Fifteen min prior to the secretagogue challenge, 50 μL of the test peptide, at 3 different concentrations (10 μM, 100 μM, or 140 μM), was administered by intratracheal route. The RNS peptide was tested at the highest dose level only (50 μL of 140 μM solution). […] Each experiment was carried out in 6 mice per point, and each set of experiments was repeated 3 times. To test strain-to-strain variations, the above experiment was repeated in Balb/C mice under similar protocol. Both stimulated and unstimulated mucin secretion, in mice treated with […] sodium acetate (data not shown), were identical to saline control. Following the methacholine challenge, the animals were sacrificed and bronchoalveolar lavage (BAL) performed on 6 animals per group for analysis of secreted mucin.
Mice were sacrificed by cervical dislocation, followed by rapid exposure of the trachea and insertion of a cannula through a small incision. Bronchoalveolar lavage (BAL) fluid was collected with 0.5 ml followed by 3×1 ml PBS containing PMSF (5 mM), EDTA (5 mM), and DTT (5 mM). BAL fluid was separated into cell-free and cell fractions via brief centrifugation prior to any analyses being performed. The cell-free supernatants were analyzed for the presence of mucin via an ELISA method using anti-mucin antibodies shown to react with mouse mucin. Specifically, a mouse anti-MUC5AC antibody that recognizes the carbohydrate portion of secreted mucin was used in these assays. Data generated from each BAL sample were normalized to total protein as determined by Bradford assay. Mucin content was expressed as the value obtained with the anti-mucin antibody minus that obtained with the non-immune control antibody. All ELISA data were statistically examined using a one-way ANOVA.

| Molecule | Mucin Secretion % control |
| --- | --- |
| CCCCCCCCCCCCCC(=O)NCC(=O)N[C@@H](C)C(=O)N[C@@H](CCC(N)=O)C(=O)N[C@@H](Cc1ccccc1)C(=O)N[C@@H](CO)C(=O)N[C@@H](CCCCN)C(=O)N[C@H](C(=O)N[C@@H](C)C(N)=O)[C@@H](C)O [myr-peptide 137-NH2] (Myristoyl-GAQFSKTA-NH2) | 56 % control |

Same assay, conditions: Table III, peptides at 100 μM

| Molecule | Mucin Secretion % control |
| --- | --- |
| CCCCCCCCCCCCCC(=O)NCC(=O)N[C@@H](C)C(=O)N[C@@H](CCC(N)=O)C(=O)N[C@@H](Cc1ccccc1)C(=O)N[C@@H](CO)C(=O)N[C@@H](CCCCN)C(=O)N[C@H](C(=O)N[C@@H](C)C(=O)N[C@@H](C)C(=O)N[C@@H](CCCCN)C(=O)NCC(=O)N[C@@H](CCC(=O)O)C(=O)N[C@@H](C)C(=O)N[C@@H](C)C(=O)N[C@@H](C)C(=O)N[C@@H](CCC(=O)O)C(=O)N[C@@H](CCCNC(=N)N)C(=O)N1CCC[C@H]1C(=O)NCC(=O)N[C@@H](CCC(=O)O)C(=O)O)[C@@H](C)O [myr-peptide 11] (Myristoyl-GAQFSKTAAKGEAAAERPGE-OH) | 54 % control |
| CCCCCCCCCCCCCC(=O)N[C@@H](CO)C(=O)N[C@@H](CCCCN)C(=O)N[C@H](C(=O)N[C@@H](C)C(=O)N[C@@H](C)C(=O)N[C@@H](CCCCN)C(=O)NCC(=O)N[C@@H](CCC(=O)O)C(=O)N[C@@H](C)C(=O)N[C@@H](C)C(=O)N[C@@H](C)C(=O)N[C@@H](CCC(=O)O)C(=O)N[C@@H](CCCNC(=N)N)C(=O)N1CCC[C@H]1C(=O)NCC(=O)N[C@@H](CCC(=O)O)C(=O)N[C@@H](C)C(=O)N[C@@H](C)C(=O)N[C@H](C(=O)N[C@@H](C)C(=O)O)C(C)C)[C@@H](C)O [myr-peptide 15] (Myristoyl-SKTAAKGEAAAERPGEAAVA-OH) | 38* % control |
| CCCCCCCCCCCCCC(=O)NCC(=O)N[C@@H](C)C(=O)N[C@@H](CCC(N)=O)C(=O)N[C@@H](Cc1ccccc1)C(=O)N[C@@H](CO)C(=O)N[C@@H](CCCCN)C(=O)N[C@H](C(=O)N[C@@H](C)C(=O)N[C@@H](C)C(=O)N[C@@H](CCCCN)C(=O)NCC(=O)N[C@@H](CCC(=O)O)C(=O)N[C@@H](C)C(=O)N[C@@H](C)C(=O)N[C@@H](C)C(=O)N[C@@H](CCC(=O)O)C(=O)O)[C@@H](C)O [myr-peptide 37] (Myristoyl-GAQFSKTAAKGEAAAE-OH) | 35** % control |

System: not listed separately
Test: Qualitative solubility of test peptides in 0.5 N saline
Assay type: physicochemical
Conditions: pH 6.5, 20° C. (table title)
Method: Various test peptides (1 to 5 mg each) were weighed out accurately in individual 2 mL screw cap glass vials and aliquots of 25 μL of 0.5 N saline, pH 6.5, were added at 25° C. and ambient pressure. The solubility was evaluated visually. If the test peptide dissolves completely with the first aliquot of saline, its solubility was calculated and designated as more than the calculated amount. […] Similarly, if 1.7 mg of a test peptide fails to dissolve in 1.7 mL of 0.5 N saline, its solubility is stated as <1.0 mg/mL.

| Molecule | solubility |
| --- | --- |
| CC(=O)N[C@@H](C)C(=O)N[C@@H](CCCCN)C(=O)NCC(=O)N[C@@H](CCC(=O)O)C(N)=O [Ac-peptide 219-NH2] (Ac-AKGE-NH2) | > 200 mg/mL |
| CCCCCCCCCCCCCC(=O)NCC(=O)N[C@@H](C)C(=O)N[C@@H](CCC(N)=O)C(=O)N[C@@H](Cc1ccccc1)C(=O)N[C@@H](CO)C(=O)N[C@@H](CCCCN)C(=O)N[C@H](C(=O)N[C@@H](C)C(=O)N[C@@H](C)C(=O)N[C@@H](CCCCN)C(=O)NCC(=O)N[C@@H](CCC(=O)O)C(=O)N[C@@H](C)C(=O)N[C@@H](C)C(=O)N[C@@H](C)C(=O)N[C@@H](CCC(=O)O)C(=O)N[C@@H](CCCNC(=N)N)C(=O)N1CCC[C@H]1C(=O)NCC(=O)N[C@@H](CCC(=O)O)C(=O)O)[C@@H](C)O [myr-peptide 11] (Myristoyl-GAQFSKTAAKGEAAAERPGE-OH) | > 2 mg/mL |
| CCCCCCCCCCCCCC(=O)N[C@@H](CO)C(=O)N[C@@H](CCCCN)C(=O)N[C@H](C(=O)N[C@@H](C)C(=O)N[C@@H](C)C(=O)N[C@@H](CCCCN)C(=O)NCC(=O)N[C@@H](CCC(=O)O)C(=O)N[C@@H](C)C(=O)N[C@@H](C)C(=O)N[C@@H](C)C(=O)N[C@@H](CCC(=O)O)C(=O)N[C@@H](CCCNC(=N)N)C(=O)N1CCC[C@H]1C(=O)NCC(=O)N[C@@H](CCC(=O)O)C(=O)N[C@@H](C)C(=O)N[C@@H](C)C(=O)N[C@H](C(=O)N[C@@H](C)C(=O)O)C(C)C)[C@@H](C)O [myr-peptide 15] (Myristoyl-SKTAAKGEAAAERPGEAAVA-OH) | > 80 mg/mL |
| CCCCCCCCCCCCCC(=O)NCC(=O)N[C@@H](C)C(=O)N[C@@H](CCC(N)=O)C(=O)N[C@@H](Cc1ccccc1)C(=O)N[C@@H](CO)C(=O)N[C@@H](CCCCN)C(=O)N[C@H](C(=O)N[C@@H](C)C(=O)N[C@@H](C)C(=O)N[C@@H](CCCCN)C(=O)NCC(=O)N[C@@H](CCC(=O)O)C(=O)N[C@@H](C)C(=O)N[C@@H](C)C(=O)N[C@@H](C)C(=O)N[C@@H](CCC(=O)O)C(=O)O)[C@@H](C)O [myr-peptide 37] (Myristoyl-GAQFSKTAAKGEAAAE-OH) | > 2 mg/mL |
| CCCCCCCCCCCCCC(=O)NCC(=O)N[C@@H](C)C(=O)N[C@@H](CCC(N)=O)C(=O)N[C@@H](Cc1ccccc1)C(=O)N[C@@H](CO)C(=O)N[C@@H](CCCCN)C(=O)N[C@H](C(=O)N[C@@H](C)C(=O)N[C@@H](C)C(=O)N[C@@H](CCCCN)C(=O)NCC(=O)N[C@@H](CCC(=O)O)C(N)=O)[C@@H](C)O [myr-peptide 79-NH2] (Myristoyl-GAQFSKTAAKGE-NH2) | < 1 mg/mL |
| CCCCCCCCCCCCCC(=O)NCC(=O)N[C@@H](C)C(=O)N[C@@H](CCC(N)=O)C(=O)N[C@@H](Cc1ccccc1)C(=O)N[C@@H](CO)C(=O)N[C@@H](CCCCN)C(=O)N[C@H](C(=O)N[C@@H](C)C(=O)N[C@@H](C)C(=O)O)[C@@H](C)O [myr-peptide 121] (Myristoyl-GAQFSKTAA-OH) | < 1 mg/mL |
| CCCCCCCCCCCCCC(=O)N[C@H](C(=O)N[C@@H](C)C(=O)N[C@@H](C)C(=O)N[C@@H](CCCCN)C(=O)NCC(=O)N[C@@H](CCC(=O)O)C(=O)N[C@@H](C)C(=O)N[C@@H](C)C(=O)O)[C@@H](C)O [myr-peptide 143] (Myristoyl-TAAKGEAA-OH) | < 1 mg/mL |
| CCCCCCCCCCCCCC(=O)N[C@@H](C)C(=O)N[C@@H](C)C(=O)N[C@@H](CCCCN)C(=O)NCC(=O)N[C@@H](CCC(=O)O)C(=O)N[C@@H](C)C(=O)O [myr-peptide 179] (Myristoyl-AAKGEA-OH) | < 1 mg/mL |
| CCCCCCCCCCCCCC(=O)N[C@@H](C)C(=O)N[C@@H](CCCCN)C(=O)NCC(=O)N[C@@H](CCC(=O)O)C(=O)O [myr-peptide 219] (Myristoyl-AKGE-OH) | < 1 mg/mL |
| CCCCCCCCCCCCCC(=O)NCC(=O)N[C@@H](C)C(=O)N[C@@H](CCC(N)=O)C(=O)N[C@@H](C)C(=O)N[C@@H](CO)C(=O)N[C@@H](CCCCN)C(=O)N[C@H](C(=O)N[C@@H](C)C(=O)N[C@@H](C)C(=O)N[C@@H](CCCCN)C(=O)NCC(=O)N[C@@H](CCC(=O)O)C(N)=O)[C@@H](C)O [myr-peptide 237-NH2] (Myristoyl-GAQASKTAAKGE-NH2) | < 1 mg/mL |
| CCCCCCCCCCCCCC(=O)NCC(=O)N[C@@H](C)C(=O)N[C@@H](CCC(N)=O)C(=O)N[C@@H](C)C(=O)N[C@@H](CO)C(=O)N[C@@H](CCCCN)C(=O)N[C@H](C(=O)N[C@@H](C)C(=O)N[C@@H](C)C(=O)N[C@@H](CCCCN)C(=O)NCC(=O)N[C@@H](CCC(=O)O)C(=O)O)[C@@H](C)O [myr-peptide 237] (Myristoyl-GAQASKTAAKGE-OH) | < 1 mg/mL |
| CCCCCCCCCCCCCC(=O)NCC(=O)N[C@@H](C)C(=O)N[C@@H](CCC(=O)O)C(=O)N[C@@H](Cc1ccccc1)C(=O)N[C@@H](CO)C(=O)N[C@@H](CCCCN)C(=O)N[C@H](C(=O)N[C@@H](C)C(=O)N[C@@H](C)C(=O)N[C@@H](CCCCN)C(=O)NCC(=O)N[C@@H](CCC(=O)O)C(=O)O)[C@@H](C)O [myr-peptide 238] (Myristoyl-GAEFSKTAAKGE-OH) | > 2 mg/mL |
| Ac-AAKGEA-OH [Ac-peptide 179] | > 150 mg/mL |
| Ac-AAQFSKTAAK-OH [Ac-peptide 242] | > 100 mg/mL |
| Ac-AQFSKTAAKGE-NH2 [Ac-peptide 93-NH2] | > 90 mg/mL |
| Ac-FSKTAAKGE-NH2 [Ac-peptide 124-NH2] | > 100 mg/mL |
| Ac-GAAFSKTAAK-OH [Ac-peptide 243] | > 50 mg/mL |
| Ac-GAQASKTAAK-OH [Ac-peptide 236] | > 80 mg/mL |

| Molecule | solubility |
| --- | --- |
| Ac-GAQFAKTAAK-OH [Ac-peptide 244] | > 120 mg/mL |
| Ac-GAQFSATAAA-OH [Ac-peptide 249] | < 1 mg/mL |
| Ac-GAQFSATAAK-OH [Ac-peptide 245] | > 100 mg/mL |
| Ac-GAQFSKAAAK-OH [Ac-peptide 247] | > 100 mg/mL |
| Ac-GAQFSKTA-OH [Ac-peptide 137] | > 200 mg/mL |
| Ac-GAQFSKTAA-OH [Ac-peptide 121] | > 20 mg/mL |
| Ac-GAQFSKTAAA-OH [Ac-peptide 248] | > 100 mg/mL |
| Ac-GAQFSKTAAAGE-OH [Ac-peptide 239] | > 50 mg/mL |
| Ac-GAQFSKTAAKGA-OH [Ac-peptide 241] | > 50 mg/mL |
| Ac-GAQFSKTAAKGE-OH [Ac-peptide 79] | > 100 mg/mL |
| Ac-GAQFSKTAAKGEAAAERPGEAAVA-OH [Ac-peptide 1] | > 125 mg/mL |
| Ac-GKASQFAKTA-OH [Ac-peptide 252, reference compound] | < 30 mg/mL |
| Ac-KAATKSFQAG-OH [Ac-peptide 246, reference compound] | < 30 mg/mL |
| Ac-KTAAKGE-NH2 [Ac-peptide 159-NH2] | > 200 mg/mL |
| Ac-QFSKTAAKGE-NH2 [Ac-peptide 108-NH2] | > 150 mg/mL |
| Ac-SKTAAKGE-NH2 [Ac-peptide 141-NH2] | > 200 mg/mL |
| Ac-TAAKGEAA-OH [Ac-peptide 143] | > 230 mg/mL |
